{"source": "patent US8853173B2", "about": "“Synthetic glycolipid and use thereof” (RIKEN, priority 2010, dated 2014)", "key": {"NKT cells [1]": {"tested_on": "NKT cells", "settings": "cited from earlier work"}, "human NKT cells": {"tested_on": "human NKT cells", "settings": "cited from earlier work"}, "NKT cells of mouse": {"tested_on": "NKT cells of mouse", "settings": "cited from earlier work"}, "NKT cells [2]": {"tested_on": "NKT cells", "assay": "Influence of synthetic glycolipid on cytokine production of NKT cells: IFN-γ in mouse plasma after tail vein administration", "assay_type": "in vivo, C57BL/6 mice", "settings": "100 μg/kg body weight, Cytometric Bead Array, data in FIG. 1-3", "protocol": "A solution of each of α-GalCer (KRN7000), compound F and compound H in dimethyl sulfoxide (DMSO) was prepared at a concentration of 1 mg/mL. The above-mentioned DMSO solution was diluted with saline (manufactured by Otsuka Pharmaceutical Co., Ltd.) containing 0.5% tween 20 (Bio-Rad) such that the dose became 100 μg/kg body weight when 200 μL per mouse was administered from the tail vein.\nThe prepared solutions (200 μL) of compounds F and H were respectively injected to C57BL/6 mice (5 mice per group) from the tail vein. As a control substance, α-GalCer (KRN7000) was used, and a solution (200 μL) of α-GalCer (KRN7000) prepared in the same manner such that the dose became 100 μg/kg body weight was injected into the tail vein. The group administered with saline (200 μL) containing 0.5% tween 20 (medium) was used as a negative control. The blood (80 μL) immediately before administration and after administration (after lapse of the time indicated in FIGS. 1-3) was collected from the orbital sinus and plasma was prepared.\nThe IFN-γ content of the plasma before administration and after administration (after lapse of the time indicated in FIG. 1) was measured by Cytometric Bead Array system (BD Biosciences) which is one of the ELISA methods. The measurement results (mean) of the production amount of IFN-γ and the standard deviation thereof (STDEV) are shown in FIG. 1."}, "NKT cells [3]": {"tested_on": "NKT cells", "settings": "cited from earlier work", "remark": "listed apart in the source"}, "NKT cells [4]": {"tested_on": "NKT cells", "settings": "cited from earlier work", "remark": "listed apart in the source"}, "NKT cells [5]": {"tested_on": "NKT cells", "settings": "cited from earlier work", "remark": "listed apart in the source"}, "NKT cells [6]": {"tested_on": "NKT cells", "settings": "cited from earlier work", "remark": "listed apart in the source"}}}
{"compound": "CCCCCCCCCCCCCCCCCCCCCCCCCC(=O)N[C@@H](COC1OC(CO)C(O)C(O)C1O)[C@H](O)[C@H](O)CCCCCCCCCCCCCC", "note": "(some centres unmarked) [KRN7000]", "values": [{"measurement": "immunostimulatory activity among synthesized analogs", "setting": "NKT cells [1]", "result": "shows the strongest activity"}]}
{"compound": "CCCCCCCCCCCCCCCCCCCCCCCCCC(=O)N[C@@H](CCC1OC(CO)C(O)C(O)C1O)[C@H](O)[C@H](O)CCCCCCCCCCCCCC", "note": "(stereo partly drawn) [α-C-GalCer]", "values": [{"measurement": "activity in vitro on human NKT cells", "setting": "human NKT cells", "result": "hardly shows activity"}, {"measurement": "activation of mouse NKT cells and IFN-γ production", "setting": "NKT cells of mouse", "result": "strongly activates NKT cells of mouse and preferentially produces IFN-γ"}]}
{"compound": "CCCCCCCCCCCCCCCCCCCCCCCCNC(=O)N[C@@H](CO[C@H]1O[C@H](COC)[C@H](O)[C@H](O)[C@H]1O)[C@H](O)[C@H](O)CCCCCCCCCCCCCC", "note": "[compound H, (2S,3S,4R)-1-(6-O-methyl-α-D-galactopyranosyloxy)-2-(tetracosylureido)-3,4-octadecanediol]", "values": [{"measurement": "IFN-γ production compared with α-GalCer (KRN7000)", "setting": "NKT cells [2]", "result": "selectively induced IFN-γ production in larger amounts than α-GalCer (KRN7000)"}]}
{"compound": "CCCCCCCCCCCCCCCCCCCCCCCCCC(=O)N[C@@H](COC1CC(CO)C(O)C(O)C1O)[C@H](O)[C@H](O)CCCCCCCCCCCCCC", "note": "(some centres unmarked) [RCAI-56]", "values": [{"measurement": "NKT cell activation / IFN-γ production", "setting": "NKT cells [3]", "result": "strongly activates NKT cells and induces production of a large amount of IFN-γ"}, {"measurement": "activity in the system of mouse", "setting": "NKT cells [4]", "result": "strong activity"}, {"measurement": "activity in the system of human (in vitro)", "setting": "NKT cells [5]", "result": "strong activity"}]}
{"compound": "CCCCCCCCCCCCCCCCCCCCCCCCCC(=O)N[C@@H](COC1OC(COC)C(O)C(O)C1O)[C@H](O)[C@H](O)CCCCCCCCCCCCCC", "note": "(some centres unmarked) [RCAI-61]", "values": [{"measurement": "NKT cell activation / IFN-γ production", "setting": "NKT cells [3]", "result": "induces production of IFN-γ in large amounts"}, {"measurement": "activity in the system of mouse", "setting": "NKT cells [4]", "result": "strong activity"}, {"measurement": "activity in the system of human (in vitro)", "setting": "NKT cells [5]", "result": "strong activity"}]}
{"compound": "CCCCCCCCCCCCCCCCCCCCCCCCc1cn([C@@H](COC2OC(CO)C(O)C(O)C2O)[C@H](O)[C@H](O)CCCCCCCCCCCCCC)nn1", "note": "(some centres unmarked) [compound 7]", "values": [{"measurement": "type of cytokine production induced", "setting": "NKT cells [6]", "result": "induce production of mostly Th2 type cytokines such as IL-4"}]}
{"compound": "CCCCCCCCCCCCCCCCCCCCCCCCC(F)(F)C(=O)N[C@@H](COC1OC(CO)C(O)C(O)C1O)[C@H](O)[C@H](O)CCCCCCCCCCCCCC", "note": "(some centres unmarked) [compound 6]", "values": [{"measurement": "type of cytokine production induced", "setting": "NKT cells [6]", "result": "induce production of mostly Th2 type cytokines such as IL-4"}]}
{"compound": "CCCCCCCCCCCCCCCCS(=O)(=O)N[C@@H](COC1OC(CO)C(O)C(O)C1O)[C@H](O)[C@H](O)CCCCCCCCCCCCCC", "note": "(some centres unmarked) [compound 5]", "values": [{"measurement": "type of cytokine production induced", "setting": "NKT cells [6]", "result": "induce production of mostly Th2 type cytokines such as IL-4"}]}
{"compound": "CCCCCCCCCCCCCCCCCCCCCCCCNC(=O)N[C@@H](CO[C@H]1O[C@H](CO)[C@H](O)[C@H](O)[C@H]1O)[C@H](O)[C@H](O)CCCCCCCCCCCCCC", "note": "[compound F, (2S,3S,4R)-1-(α-D-galactopyranosyloxy)-2-(tetracosylureido)-3,4-octadecanediol]", "values": [{"measurement": "IFN-γ production compared with α-GalCer (KRN7000)", "setting": "NKT cells [2]", "result": "selectively induced IFN-γ production in larger amounts than α-GalCer (KRN7000)"}]}
